Key:
[1] = molecular target: Histone acetyltransferase KAT5 (Homo sapiens, UniProt Q92993); test: (§1) KAT-5 Enzyme Assay: Enzyme assay buffer was 50 mM Tris pH 8.0, 0.002% Tween20, 0.005% bovine skin gelatin, and 1 mM dithiothreitol (DTT). For determination of IC50values, compounds were serially diluted with 2% (v/v) DMSO in the final reaction, pre-incubating each dilution of each compound with 40 μL of assay buffer containing KAT-5 enzyme (9 nM final concentration). 10 μL of assay buffer containing 1 μM peptide substrate and 0.5 μM acetyl coenzyme A (final concentrations) was added. Reactions (50 μL total) were then carried out at 25° C. for 90 minutes. Reactions were terminated by the addition of 0.5% formic acid (final concentration), and a sample of each reaction was analyzed by SAMDI Tech, Inc. (Chicago, Ill.) using self-assembled monolayer desorption/ionization time-of-flight mass spectrometry (Mrksich, M. (2008) Mass spectrometry of self-assembled monolayers: a new tool for molecular surface science. ACS Nano 2, 7-18).
[2] = molecular target: Histone acetyltransferase KAT6A (Homo sapiens, UniProt Q92794); test: as §1, with “KAT-6A Enzyme” for “KAT-5 Enzyme”, “Assay: KAT-6A.” for “Assay:”, “containing KAT-6A” for “containing KAT-5”, “enzyme (12.5” for “enzyme (9”, “and 1” for “and 0.5”
[3] = molecular target: Histone acetyltransferase KAT7 (Homo sapiens, UniProt O95251); test: as §1, with “KAT-7 Enzyme” for “KAT-5 Enzyme”, “containing KAT-7” for “containing KAT-5”, “enzyme (6” for “enzyme (9”, “and 2” for “and 0.5”, “for 120” for “for 90”
[4] = molecular target: T1, Histone acetyltransferase KAT8 (Homo sapiens, UniProt Q9H7Z6); test: as §1, with “KAT-8 Enzyme” for “KAT-5 Enzyme”, “containing KAT-8” for “containing KAT-5”, “enzyme (12.5” for “enzyme (9”, “and 5” for “and 0.5”
T1 sequence (Q9H7Z6 whole entry): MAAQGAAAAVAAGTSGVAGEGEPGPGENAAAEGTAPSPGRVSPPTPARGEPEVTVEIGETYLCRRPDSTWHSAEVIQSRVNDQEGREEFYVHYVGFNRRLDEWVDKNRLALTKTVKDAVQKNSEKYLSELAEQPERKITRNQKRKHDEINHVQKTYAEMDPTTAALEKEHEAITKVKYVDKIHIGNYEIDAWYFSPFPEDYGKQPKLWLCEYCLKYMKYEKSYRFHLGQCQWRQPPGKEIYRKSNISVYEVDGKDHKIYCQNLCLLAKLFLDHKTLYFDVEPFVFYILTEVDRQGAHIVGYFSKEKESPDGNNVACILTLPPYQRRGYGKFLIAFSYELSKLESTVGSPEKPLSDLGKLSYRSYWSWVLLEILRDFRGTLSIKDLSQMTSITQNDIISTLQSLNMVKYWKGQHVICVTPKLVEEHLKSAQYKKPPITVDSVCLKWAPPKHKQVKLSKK

Chain of Histone acetyltransferase KAT7 (O95251 whole entry): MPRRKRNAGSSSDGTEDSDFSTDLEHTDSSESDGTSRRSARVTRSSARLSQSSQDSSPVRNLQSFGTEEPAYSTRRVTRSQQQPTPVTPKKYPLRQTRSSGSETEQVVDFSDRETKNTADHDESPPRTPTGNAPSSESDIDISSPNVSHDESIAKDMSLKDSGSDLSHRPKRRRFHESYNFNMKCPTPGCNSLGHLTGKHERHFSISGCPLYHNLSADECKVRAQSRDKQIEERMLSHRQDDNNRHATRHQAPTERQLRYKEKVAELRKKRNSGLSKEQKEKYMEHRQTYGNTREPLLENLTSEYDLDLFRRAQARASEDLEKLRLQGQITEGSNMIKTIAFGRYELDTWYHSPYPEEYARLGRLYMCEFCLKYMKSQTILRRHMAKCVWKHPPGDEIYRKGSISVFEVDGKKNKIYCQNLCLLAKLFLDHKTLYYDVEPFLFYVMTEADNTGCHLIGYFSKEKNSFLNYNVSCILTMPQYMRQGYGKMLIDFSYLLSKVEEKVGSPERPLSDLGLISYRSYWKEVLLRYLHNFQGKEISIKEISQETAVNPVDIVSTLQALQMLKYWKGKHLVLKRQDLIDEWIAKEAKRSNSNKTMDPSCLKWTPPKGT
Chain of Histone acetyltransferase KAT5 (Q92993 whole entry): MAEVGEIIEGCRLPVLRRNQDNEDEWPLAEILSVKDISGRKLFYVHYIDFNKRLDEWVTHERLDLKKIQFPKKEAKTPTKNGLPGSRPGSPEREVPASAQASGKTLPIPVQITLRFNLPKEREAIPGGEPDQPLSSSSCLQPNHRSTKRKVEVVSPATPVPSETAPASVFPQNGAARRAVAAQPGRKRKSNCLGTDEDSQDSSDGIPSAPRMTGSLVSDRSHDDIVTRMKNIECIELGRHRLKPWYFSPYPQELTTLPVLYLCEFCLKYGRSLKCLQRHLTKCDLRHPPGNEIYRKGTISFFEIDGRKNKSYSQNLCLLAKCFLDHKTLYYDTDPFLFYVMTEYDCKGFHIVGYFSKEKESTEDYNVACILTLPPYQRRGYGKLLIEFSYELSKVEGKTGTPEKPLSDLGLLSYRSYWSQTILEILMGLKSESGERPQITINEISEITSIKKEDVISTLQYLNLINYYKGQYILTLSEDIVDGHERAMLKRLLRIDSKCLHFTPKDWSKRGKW
Chain of Histone acetyltransferase KAT6A (Q92794 whole entry): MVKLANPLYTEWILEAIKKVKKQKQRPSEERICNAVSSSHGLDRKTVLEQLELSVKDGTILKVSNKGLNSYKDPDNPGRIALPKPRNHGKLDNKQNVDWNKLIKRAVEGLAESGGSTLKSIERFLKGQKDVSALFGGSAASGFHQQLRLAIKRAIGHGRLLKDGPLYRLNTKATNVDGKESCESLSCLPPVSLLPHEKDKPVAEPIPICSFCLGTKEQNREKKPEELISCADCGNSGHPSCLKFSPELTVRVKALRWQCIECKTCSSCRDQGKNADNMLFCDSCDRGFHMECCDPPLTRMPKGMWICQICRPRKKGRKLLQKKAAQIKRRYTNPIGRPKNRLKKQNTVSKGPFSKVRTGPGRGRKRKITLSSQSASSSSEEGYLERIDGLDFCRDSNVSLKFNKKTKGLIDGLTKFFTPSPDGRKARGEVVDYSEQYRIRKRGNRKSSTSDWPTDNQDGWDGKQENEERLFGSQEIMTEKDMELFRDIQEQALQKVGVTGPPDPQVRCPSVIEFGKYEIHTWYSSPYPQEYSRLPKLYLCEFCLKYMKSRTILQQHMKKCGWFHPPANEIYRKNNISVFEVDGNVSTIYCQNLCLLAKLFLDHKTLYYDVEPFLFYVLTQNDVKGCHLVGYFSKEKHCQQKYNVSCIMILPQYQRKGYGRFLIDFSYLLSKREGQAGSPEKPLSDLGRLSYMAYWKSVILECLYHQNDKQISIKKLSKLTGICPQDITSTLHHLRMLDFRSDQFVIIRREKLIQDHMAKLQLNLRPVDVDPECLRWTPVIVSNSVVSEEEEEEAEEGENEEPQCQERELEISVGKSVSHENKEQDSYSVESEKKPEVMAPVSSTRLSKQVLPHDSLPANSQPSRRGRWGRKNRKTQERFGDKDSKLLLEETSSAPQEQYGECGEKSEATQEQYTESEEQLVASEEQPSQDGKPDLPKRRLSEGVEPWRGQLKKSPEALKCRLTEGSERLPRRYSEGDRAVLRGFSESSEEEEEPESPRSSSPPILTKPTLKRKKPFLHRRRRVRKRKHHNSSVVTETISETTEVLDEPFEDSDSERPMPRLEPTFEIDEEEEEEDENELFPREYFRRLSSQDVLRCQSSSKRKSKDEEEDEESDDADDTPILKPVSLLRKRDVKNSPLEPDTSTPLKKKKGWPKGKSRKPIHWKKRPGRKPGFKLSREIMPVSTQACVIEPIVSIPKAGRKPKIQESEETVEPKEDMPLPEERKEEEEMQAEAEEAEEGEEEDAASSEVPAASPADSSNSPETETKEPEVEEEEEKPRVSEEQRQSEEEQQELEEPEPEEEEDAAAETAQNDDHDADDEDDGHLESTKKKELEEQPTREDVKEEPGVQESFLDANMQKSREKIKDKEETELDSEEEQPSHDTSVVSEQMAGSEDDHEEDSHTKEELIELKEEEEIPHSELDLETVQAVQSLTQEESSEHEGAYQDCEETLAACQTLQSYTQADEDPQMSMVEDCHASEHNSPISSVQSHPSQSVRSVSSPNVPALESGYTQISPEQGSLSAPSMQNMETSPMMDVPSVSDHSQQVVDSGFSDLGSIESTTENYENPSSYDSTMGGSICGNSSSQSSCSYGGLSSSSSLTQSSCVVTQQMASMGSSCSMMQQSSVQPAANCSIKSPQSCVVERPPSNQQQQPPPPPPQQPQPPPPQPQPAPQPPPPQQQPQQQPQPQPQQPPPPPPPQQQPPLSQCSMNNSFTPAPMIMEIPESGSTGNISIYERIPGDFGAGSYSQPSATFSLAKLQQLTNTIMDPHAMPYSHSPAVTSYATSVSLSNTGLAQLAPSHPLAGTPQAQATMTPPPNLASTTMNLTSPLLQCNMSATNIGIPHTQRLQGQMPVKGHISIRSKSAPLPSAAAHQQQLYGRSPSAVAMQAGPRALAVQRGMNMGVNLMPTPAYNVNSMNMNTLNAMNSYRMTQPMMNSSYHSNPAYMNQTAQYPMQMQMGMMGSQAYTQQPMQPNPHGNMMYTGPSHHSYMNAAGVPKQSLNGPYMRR

Question: `COc1ccc(S(=O)(=O)NNC(=O)c2cc(-c3cn(C)cn3)cc(Cl)c2F)nc1` was tested. Which IC50 [1] did it give?
Answer: < 10 µM

Question: What about the IC50 [2] of the same compound?
Answer: < 10 µM

Question: And the IC50 [3]?
Answer: < 10 µM

Question: And the IC50 [4]?
Answer: in the range around 30 µM

Question: `COc1ccc(S(=O)(=O)NNC(=O)c2cc(-c3cn(C)cn3)cc(Cl)c2F)cc1` was tested. Which IC50 [1] did it give?
Answer: < 10 µM

Question: And the IC50 [2]?
Answer: < 10 µM

Question: And the IC50 [3]?
Answer: < 10 µM

Question: What about the IC50 [4] of the same compound?
Answer: in the range around 30 µM

Question: What does the source list for `COc1ccc(S(=O)(=O)NNC(=O)c2cc(-c3cn(C)cn3)cc(Cl)c2F)c(F)c1`?
Answer: IC50 [1]: < 10 µM; IC50 [2]: < 10 µM; IC50 [3]: < 10 µM; IC50 [4]: in the range around 30 µM

Question: For `CNc1cccc(S(=O)(=O)NNC(=O)c2cc(-c3cn(C)cn3)cc(Cl)c2F)c1`, which IC50 [1] is on record?
Answer: < 10 µM

Question: What about the IC50 [2] of the same compound?
Answer: < 10 µM

Question: And the IC50 [3]?
Answer: < 10 µM

Question: What about the IC50 [4] of the same compound?
Answer: in the range around 30 µM

Question: `Cn1cnc(-c2cc(Cl)c(F)c(C(=O)NNS(=O)(=O)c3ccccc3F)c2)c1` was tested. Which IC50 [1] did it give?
Answer: < 10 µM

Question: And the IC50 [2]?
Answer: < 10 µM

Question: And the IC50 [3]?
Answer: < 10 µM

Question: What about the IC50 [4] of the same compound?
Answer: in the range around 30 µM

Reference: ChEMBL document CHEMBL5729772, “MYST family histone acetyltransferase inhibitors” (2023)
